# Earlier results in patent publication US20150196488A1, “Topical Foam Composition” (priority 2009, published 2015).
# Conditions: alcohol, ethyl acetate, chloroform and toluene
smiles,measurement,value
"CO[C@H]1/C=C/O[C@@]2(C)Oc3c(C)c(O)c4c(O)c(c5c(nc6cc(C)ccn65)c4c3C2=O)NC(=O)/C(C)=C\C=C\[C@H](C)[C@H](O)[C@@H](C)[C@@H](O)[C@@H](C)[C@H](OC(C)=O)[C@@H]1C [Rifaximin, (2S,16Z,18E,20S,21S,22R,23R,24R,25S,26S,27S,28E)-5,6,21,23,25-pentahydroxy-27-methoxy-2,4,11,16,20,22,24,26-octamethyl-2,7-(epoxypentadeca-[1,11,13]trienimino)benzofuro[4,5-e]pyrido[1,2-a]-benzimida-zole-1,15(2H)-dione,25-acetate]",solubility in organic solvents,soluble
